These results are taken from patent publication US20240408159A1, “PHYTOENE-CONTAINING OLEORESIN AND COMPOSITION” (LYCORED LTD., priority 2021, published 2024).

The test system of assay [1] is IL-1a. Kind of assay: DPM-induced IL-1a production in EpiDerm 3D reconstructed skin model. The format is cell-based, human. The settings on record: 48 hours, FIG. 6. The method, then:
The EpiDerm reconstructed skin system was obtained from the supplier MatTek (catalogue number EPI-200), and the tissue was handled according to the manufacturer's instructions. Briefly, upon delivery, the tissue was removed from its agar medium, washed and then left to recover overnight at 37 C, in a 5% CO2 environment. Then, the tissue was treated with topically-applied DPM (100 μg/ml in PBS, 10 μl/sample) in the presence or absence of the phytoene oleoresin diluted in jojoba wax at concentrations of 0.1, 1 and 2.5%, to a final volume of 30 μl. The following control groups were also set up: naïve tissue (untreated control), vehicle (jojoba wax), DPM-stimulated tissue and N-acetyl cysteine (NAC; positive control). Following addition of the test substances and controls, the reconstructed skin cultures were incubated for a further 48 hours at 37 C, in a 5% CO2 environment. At the end of the treatment period, the medium was collected from the tissue control implants and centrifuged at 250×g for 5 minutes, in order to remove particulate matter. […] IL-1a and IL-6 levels in the thawed medium were determined using commercial ELISA kits (ELISA Max Deluxe Set Human IL-1a catalogue number B265424; ELISA Max Deluxe Set Human IL-6 catalogue number B2852558; both supplied by Enco), according to the manufacturer's instructions.

The test system of assay [2] is IL-8. Description: Inhibition of UVB-induced IL-8 production in cultured HaCaT keratinocytes. The following applies: UVB lamp, test at final phytoene concentration 56 ppm, FIG. 5. The class given is cell-based, human. The method, then:
Spontaneously transformed adult human keratinocytes of the HaCaT line were grown, maintained, plated and treated with control and test substances as described in Example 1, above. The cultured cells were irradiated using a UVB lamp in order to generate an inflammatory response in the cultured cells. The control substances used in this study were: • Vehicle control (“Control” in FIG. 5) • UVB exposure only (“Untreated”) • 4-Aminobenzoic acid (“PABA”; positive control) The test substance used was a dilution of the composition of the present invention (i.e., containing non-GMO, solvent free phytoene and jojoba oil), yielding a final phytoene concentration of 56 ppm. The IL-8 concentration of the culture cell supernatants was measured as described in Example 1, above.

On to `CC(=O)N[C@@H](CS)C(=O)O` [NAC, N-acetyl cysteine], for which, in assay [1], the “reduction in IL-1a production (positive control)” value was “reduction”.
In the case of `Nc1ccc(C(=O)O)cc1` [PABA, 4-Aminobenzoic acid], in assay [2], the “reduction in UVB-stimulated IL-8 production” value was “inhibition”.
